The text below walks through data of ChEMBL document CHEMBL1201862, “PubChem BioAssay data set” (2004).

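Results reflect a 48-hour exposure of cells in 96-well plates to compound at five concentrations. GI50: concentration for 50% inhibition of growth.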 Calls of active or inactive are those of the source. Rule as the data show it: active = GI50 up to about 1.1 µM and inactive = higher.

The term GI50 denotes the concentration at which growth is held to half of that of the control.

Among the test systems are COLO 205; NCI/ADR-RES; Hs-578T; SNB-75; OVCAR-4; Malme-3M; RPMI-8226; TK-10; SK-MEL-28; MOLT-4; A498; A549; NCI-H460; HCT-116; SK-OV-3; SF-268; SNB-19; UACC-62; HCC 2998; MDA-MB-231.
Assay in all cases: DTP human tumour cell line panel, 48 h

Take `O=C(Nc1ccc(Cl)c(Cl)c1)N1N=C2c3ccccc3CCC2C1c1ccc(Cl)cc1` (stereo not given): the GI50 in the assay with COLO 205, in the assay with NCI/ADR-RES, with Hs-578T, with SNB-75, with OVCAR-4 and with Malme-3M was > 100 µM (inactive) in each case. In addition, the GI50 in the assay with RPMI-8226, with TK-10, in the assay with SK-MEL-28, in the assay on MOLT-4, in the assay on A498 and in the assay on A549 was > 100 µM (inactive) in each case. Besides, the GI50 with NCI-H460, with HCT-116, with SK-OV-3, in the assay with SF-268, with SNB-19 and in the assay on UACC-62 was > 100 µM (inactive) throughout. In addition, the GI50 with HCC 2998 and in the assay on MDA-MB-231 was > 100 µM (inactive) each time.
For the molecule `Oc1[nH]c(Nc2ccc(F)c(Cl)c2)nc2ncnc1-2`, the GI50 was > 100 µM (inactive) in the assay on COLO 205; > 100 µM (inactive) in the assay with NCI/ADR-RES; 29.6 µM (inactive) with Hs-578T; 25.9 µM (inactive) in the assay on SNB-75; > 100 µM (inactive) in the assay with OVCAR-4; > 100 µM (inactive) in the assay on Malme-3M. The GI50 with RPMI-8226 was > 100 µM (inactive); in the assay with TK-10 it was > 100 µM (inactive); in the assay on SK-MEL-28, > 100 µM (inactive); with MOLT-4 it was 7.29 µM (inactive); in the assay on A498 it was > 100 µM (inactive); in the assay on A549 it was > 100 µM (inactive). Also, the GI50 with NCI-H460, in the assay with HCT-116, in the assay on SK-OV-3, in the assay with SF-268, in the assay on SNB-19 and with UACC-62 was > 100 µM (inactive) each time. Moreover, the GI50 with HCC 2998 and in the assay on MDA-MB-231 was > 100 µM (inactive) throughout.
Take `O=C1/C(=C\c2cccc(Oc3ccccc3)c2)SC(c2ccccc2)N1c1ccc(Cl)cc1` (stereo not given): the GI50 in the assay with COLO 205 was 11.2 µM (inactive); in the assay on NCI/ADR-RES, 21.4 µM (inactive); with Hs-578T, > 67.9 µM (inactive); in the assay with SNB-75 it was 90.4 µM (inactive); in the assay with OVCAR-4, 17.4 µM (inactive); in the assay with Malme-3M, 45.6 µM (inactive). Moreover, the GI50 in the assay on RPMI-8226 is 5.78 µM (inactive); in the assay on TK-10, > 64.9 µM (inactive); with SK-MEL-28 it was 64.9 µM (inactive); in the assay on MOLT-4, 20.4 µM (inactive); in the assay on A498, > 95.9 µM (inactive); in the assay on A549 it was > 40.6 µM (inactive). For the same molecule, the GI50 in the assay with NCI-H460 is 24.5 µM (inactive); in the assay with HCT-116 it was 10.3 µM (inactive); in the assay with SK-OV-3 it was 14.1 µM (inactive); in the assay with SF-268, 18.2 µM (inactive); in the assay on SNB-19 it was 59.4 µM (inactive); in the assay on UACC-62, 9.04 µM (inactive). The GI50 is 87.5 µM (inactive) in the assay with HCC 2998 and > 64.6 µM (inactive) with MDA-MB-231.
For `Nc1ncnc2c1ncn2CCCNO`, the GI50 with COLO 205, in the assay on NCI/ADR-RES, in the assay with Hs-578T, in the assay on SNB-75, in the assay with OVCAR-4 and in the assay on Malme-3M was > 100 µM (inactive) each time. Moreover, the GI50 in the assay with RPMI-8226, in the assay with TK-10, in the assay with SK-MEL-28, in the assay on MOLT-4, in the assay with A498 and in the assay with A549 was > 100 µM (inactive) each time. For the same molecule, the GI50 in the assay on NCI-H460, in the assay on HCT-116, with SK-OV-3, in the assay on SF-268, in the assay on SNB-19 and with UACC-62 was > 100 µM (inactive) each time. Moreover, the GI50 in the assay with HCC 2998 and with MDA-MB-231 was > 100 µM (inactive) throughout.
For `COc1cc(C2SCC(=O)N2c2ccc(Cl)c(Cl)c2)cc(OC)c1OC` (stereo not given), the GI50 was 34.3 µM (inactive) with COLO 205; 37.2 µM (inactive) in the assay on NCI/ADR-RES; > 100 µM (inactive) with Hs-578T; 76.6 µM (inactive) in the assay on SNB-75; 27.4 µM (inactive) in the assay with OVCAR-4; > 100 µM (inactive) with Malme-3M. For the same molecule, the GI50 in the assay with RPMI-8226 is 31.8 µM (inactive); in the assay on TK-10, > 100 µM (inactive); with SK-MEL-28, > 50.9 µM (inactive); in the assay on MOLT-4, 14.7 µM (inactive); in the assay with A498, > 100 µM (inactive); in the assay on A549, > 78.7 µM (inactive). Also, the GI50 with NCI-H460 was 30.2 µM (inactive); in the assay on HCT-116, 25.5 µM (inactive); with SK-OV-3, 99.3 µM (inactive); in the assay with SF-268, > 100 µM (inactive); in the assay on SNB-19, > 100 µM (inactive); with UACC-62, 0.838 µM (active). In addition, the GI50 in the assay with HCC 2998 is > 56.9 µM (inactive); in the assay with MDA-MB-231, > 64.4 µM (inactive).
With `O=C1SC(SCc2ccccc2)=NC12CC2c1ccccc1` (stereo not given), the GI50 with COLO 205 is 23.4 µM (inactive); in the assay on NCI/ADR-RES, 23.9 µM (inactive); in the assay on Hs-578T, 24.3 µM (inactive); in the assay with SNB-75, 29.2 µM (inactive); in the assay on OVCAR-4, 16 µM (inactive); in the assay on Malme-3M, 17.7 µM (inactive). Besides, the GI50 is 16.7 µM (inactive) in the assay with RPMI-8226; 25.6 µM (inactive) with TK-10; 19 µM (inactive) in the assay on SK-MEL-28; 1.34 µM (inactive) in the assay with MOLT-4; 25.5 µM (inactive) in the assay on A498; 26.9 µM (inactive) in the assay on A549. Moreover, the GI50 in the assay with NCI-H460 is 18.7 µM (inactive); with HCT-116, 16.6 µM (inactive); in the assay with SK-OV-3, 37.7 µM (inactive); with SF-268, 27 µM (inactive); in the assay on SNB-19 it was 26.7 µM (inactive); in the assay with UACC-62 it was 17.1 µM (inactive). The GI50 in the assay on HCC 2998 was 7.62 µM (inactive); in the assay on MDA-MB-231, 20.3 µM (inactive).
As to `COc1ccc(-c2c(C#N)c(-c3ccccc3)n(NS(=O)(=O)c3ccccc3)c(=O)c2C#N)cc1`, the GI50 is > 100 µM (inactive) in the assay on COLO 205; 53.3 µM (inactive) in the assay with NCI/ADR-RES; 41.6 µM (inactive) in the assay on Hs-578T; 50.8 µM (inactive) in the assay on SNB-75; > 100 µM (inactive) in the assay with OVCAR-4; 41.6 µM (inactive) in the assay with Malme-3M. The GI50 with RPMI-8226 is 29.2 µM (inactive); in the assay on TK-10 it was > 100 µM (inactive); in the assay on SK-MEL-28, > 100 µM (inactive); with MOLT-4, 27.6 µM (inactive); in the assay with A498, > 100 µM (inactive); in the assay with A549 it was > 100 µM (inactive). Further, the GI50 in the assay with NCI-H460 was > 100 µM (inactive); in the assay with HCT-116, > 100 µM (inactive); in the assay with SK-OV-3 it was > 100 µM (inactive); in the assay with SF-268, 97.3 µM (inactive); with SNB-19, 92.7 µM (inactive); in the assay with UACC-62, 79.8 µM (inactive). The GI50 with HCC 2998 is 81.5 µM (inactive); in the assay on MDA-MB-231, > 100 µM (inactive).
Consider `COc1ccc(-c2nc3ccc(C)cc3o2)c(OC)c1`, for which the GI50 in the assay with COLO 205 is 20.7 µM (inactive); with NCI/ADR-RES, 29.4 µM (inactive); in the assay on Hs-578T, 25.8 µM (inactive); in the assay with SNB-75, 16.7 µM (inactive); in the assay with OVCAR-4, 26.9 µM (inactive); in the assay on Malme-3M it was 21.2 µM (inactive). Moreover, the GI50 is 19.5 µM (inactive) with RPMI-8226; 27.4 µM (inactive) in the assay on TK-10; 55.7 µM (inactive) in the assay on SK-MEL-28; 11.3 µM (inactive) in the assay with MOLT-4; 18.6 µM (inactive) in the assay with A498; 4.76 µM (inactive) in the assay with A549. For the same molecule, the GI50 with NCI-H460 was 2.93 µM (inactive); in the assay on HCT-116, 17.9 µM (inactive); in the assay on SK-OV-3, 41.5 µM (inactive); in the assay with SF-268, 28.6 µM (inactive); with SNB-19, 7.41 µM (inactive); in the assay with UACC-62, 23.5 µM (inactive). Also, the GI50 was 14.9 µM (inactive) in the assay with HCC 2998 and 19.8 µM (inactive) in the assay on MDA-MB-231.
`CN1C(=O)C23CC4=CC=CC(O)C4N2C(=O)C1(CO)SS3` (stereo not given): the GI50 was 0.0524 µM (active) in the assay on COLO 205; 0.0224 µM (active) with NCI/ADR-RES; 0.39 µM (active) with Hs-578T; 0.21 µM (active) in the assay on SNB-75; 0.223 µM (active) in the assay on OVCAR-4; 0.223 µM (active) with Malme-3M. For the same molecule, the concentration for 50% growth inhibition (GI50) in the assay with RPMI-8226 was 0.163 µM (active); in the assay with TK-10, 0.179 µM (active); in the assay on SK-MEL-28, 0.507 µM (active); with MOLT-4 it was 0.134 µM (active); with A498, 0.234 µM (active); in the assay on A549, 0.171 µM (active). The GI50 is 0.0948 µM (active) with NCI-H460; 0.107 µM (active) with HCT-116; 1.26 µM (inactive) in the assay with SK-OV-3; 0.207 µM (active) with SF-268; 0.553 µM (active) in the assay with SNB-19; 0.179 µM (active) in the assay on UACC-62. In addition, the concentration for 50% growth inhibition (GI50) is 0.155 µM (active) in the assay on HCC 2998 and 0.199 µM (active) in the assay with MDA-MB-231.
Regarding `Cc1ccc(S(=O)(=O)NC2=NS(=O)(=O)c3cc(C)c(Cl)cc3S2)cc1`, the GI50 was > 100 µM (inactive) with COLO 205; > 100 µM (inactive) in the assay with NCI/ADR-RES; > 100 µM (inactive) in the assay on Hs-578T; > 100 µM (inactive) in the assay on SNB-75; > 100 µM (inactive) in the assay with OVCAR-4; 38.8 µM (inactive) in the assay on Malme-3M. Moreover, the GI50 in the assay with RPMI-8226 is > 100 µM (inactive); in the assay with TK-10, > 100 µM (inactive); with SK-MEL-28, > 100 µM (inactive); with MOLT-4 it was 39.1 µM (inactive); in the assay on A498, > 100 µM (inactive); in the assay with A549, > 100 µM (inactive). For the same molecule, the GI50 in the assay on NCI-H460 was > 100 µM (inactive); in the assay with HCT-116, 88.3 µM (inactive); with SK-OV-3, > 100 µM (inactive); in the assay with SF-268, > 100 µM (inactive); in the assay with SNB-19, 75 µM (inactive); in the assay with UACC-62, > 100 µM (inactive). The GI50 with HCC 2998 was 82.6 µM (inactive); in the assay with MDA-MB-231, > 100 µM (inactive).
